Assay results published in patent US11130756B2, “[1,2,4]Triazolo[4,3-A]pyridinyl substituted indole compounds” (BRISTOL-MYERS SQUIBB COMPANY, priority 2017, dated 2021).

Columns and labels:
Assay type in all cases: cell-based
human TLR7 = target: T1, human TLR7 (Homo sapiens, UniProt Q9NYK1); test: TLR7 inhibition reporter assay (HEK-Blue, SEAP); settings: HEK-Blue cells overexpressing human TLR7, gardiquimod 7.5 μM, 22 hour incubation
T1 construct: host or cells: HEK-Blue cells
T1 sequence (Q9NYK1 27-1049): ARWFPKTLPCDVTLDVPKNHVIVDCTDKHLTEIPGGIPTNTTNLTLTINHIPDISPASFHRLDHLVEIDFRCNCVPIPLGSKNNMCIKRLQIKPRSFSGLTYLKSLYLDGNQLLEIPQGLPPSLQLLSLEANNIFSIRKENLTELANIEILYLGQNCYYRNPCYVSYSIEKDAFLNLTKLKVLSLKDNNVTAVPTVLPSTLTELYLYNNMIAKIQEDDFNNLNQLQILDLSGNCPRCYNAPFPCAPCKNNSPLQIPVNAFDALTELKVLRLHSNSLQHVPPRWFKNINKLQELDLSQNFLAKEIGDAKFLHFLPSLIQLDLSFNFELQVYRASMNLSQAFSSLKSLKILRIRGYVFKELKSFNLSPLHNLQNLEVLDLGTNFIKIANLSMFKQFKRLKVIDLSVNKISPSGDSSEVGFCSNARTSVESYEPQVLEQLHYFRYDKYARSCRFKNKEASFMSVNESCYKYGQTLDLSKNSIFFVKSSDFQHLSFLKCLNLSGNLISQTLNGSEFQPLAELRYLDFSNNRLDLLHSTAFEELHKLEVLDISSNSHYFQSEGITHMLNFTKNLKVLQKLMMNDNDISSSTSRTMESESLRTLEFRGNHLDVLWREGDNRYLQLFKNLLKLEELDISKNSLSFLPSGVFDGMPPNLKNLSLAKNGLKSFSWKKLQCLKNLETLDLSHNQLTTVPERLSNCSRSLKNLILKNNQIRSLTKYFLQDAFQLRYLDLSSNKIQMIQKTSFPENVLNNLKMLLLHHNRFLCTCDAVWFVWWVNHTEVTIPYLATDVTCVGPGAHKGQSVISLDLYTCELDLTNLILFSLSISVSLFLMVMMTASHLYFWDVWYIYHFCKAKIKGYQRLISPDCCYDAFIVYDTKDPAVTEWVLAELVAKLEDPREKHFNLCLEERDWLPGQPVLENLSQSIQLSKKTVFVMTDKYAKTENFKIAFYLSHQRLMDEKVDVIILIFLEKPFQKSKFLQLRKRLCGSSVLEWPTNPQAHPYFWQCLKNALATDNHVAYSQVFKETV
Procedure, shortened: (§1)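 HEK-Blue cells overexpressing human TLR7, TLR8 or TLR9 carry a SEAP reporter driven by NF-κB/AP-1 sites. Compounds (0.05 nM–50 μM) were preincubated 30 min at room temperature, then cells were stimulated with gardiquimod 7.5 μM (TLR7), R848 15.9 μM (TLR8) or ODN2006 5 nM (TLR9) for 22 h at 37 °C.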

human TLR8 = target: T2, human TLR8 (Homo sapiens, UniProt Q9NR97); test: TLR8 inhibition reporter assay (HEK-Blue, SEAP); settings: HEK-Blue cells overexpressing human TLR8, R848 15.9 μM, 22 hour incubation
T2 construct: host or cells: HEK-Blue cells
T2 sequence (Q9NR97 27-1041): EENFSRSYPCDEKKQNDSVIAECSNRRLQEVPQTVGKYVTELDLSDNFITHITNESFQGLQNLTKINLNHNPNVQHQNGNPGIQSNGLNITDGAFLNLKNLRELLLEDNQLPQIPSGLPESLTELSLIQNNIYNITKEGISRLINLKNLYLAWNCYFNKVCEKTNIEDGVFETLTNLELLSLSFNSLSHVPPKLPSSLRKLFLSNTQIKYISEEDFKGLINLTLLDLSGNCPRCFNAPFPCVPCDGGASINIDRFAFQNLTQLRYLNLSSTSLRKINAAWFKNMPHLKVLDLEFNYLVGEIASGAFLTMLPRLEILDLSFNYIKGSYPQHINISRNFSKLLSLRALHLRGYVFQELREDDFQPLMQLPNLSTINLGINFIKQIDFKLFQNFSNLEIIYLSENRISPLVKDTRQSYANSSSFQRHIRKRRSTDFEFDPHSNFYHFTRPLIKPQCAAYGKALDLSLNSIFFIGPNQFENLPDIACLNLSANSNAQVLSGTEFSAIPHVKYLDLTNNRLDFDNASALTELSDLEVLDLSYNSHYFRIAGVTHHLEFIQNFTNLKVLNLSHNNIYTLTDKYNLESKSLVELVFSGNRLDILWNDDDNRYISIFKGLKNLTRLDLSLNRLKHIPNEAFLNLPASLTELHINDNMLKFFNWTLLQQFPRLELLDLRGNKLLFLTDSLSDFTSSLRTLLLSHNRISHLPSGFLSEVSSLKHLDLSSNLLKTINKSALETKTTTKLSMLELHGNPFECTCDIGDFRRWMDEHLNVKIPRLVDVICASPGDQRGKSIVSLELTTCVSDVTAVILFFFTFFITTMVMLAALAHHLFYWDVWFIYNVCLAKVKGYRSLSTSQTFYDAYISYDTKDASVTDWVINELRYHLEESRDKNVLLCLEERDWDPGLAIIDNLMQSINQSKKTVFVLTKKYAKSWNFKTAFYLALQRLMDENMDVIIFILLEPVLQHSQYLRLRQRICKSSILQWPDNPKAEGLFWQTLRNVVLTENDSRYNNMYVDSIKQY
Procedure, shortened: as §1

human TLR9 = target: T3, human TLR9 (Homo sapiens, UniProt Q9NR96); test: TLR9 inhibition reporter assay (HEK-Blue, SEAP); settings: HEK-Blue cells overexpressing human TLR9, ODN2006 5 nM, 22 hour incubation
T3 construct: host or cells: HEK-Blue cells
T3 sequence (Q9NR96 26-1032): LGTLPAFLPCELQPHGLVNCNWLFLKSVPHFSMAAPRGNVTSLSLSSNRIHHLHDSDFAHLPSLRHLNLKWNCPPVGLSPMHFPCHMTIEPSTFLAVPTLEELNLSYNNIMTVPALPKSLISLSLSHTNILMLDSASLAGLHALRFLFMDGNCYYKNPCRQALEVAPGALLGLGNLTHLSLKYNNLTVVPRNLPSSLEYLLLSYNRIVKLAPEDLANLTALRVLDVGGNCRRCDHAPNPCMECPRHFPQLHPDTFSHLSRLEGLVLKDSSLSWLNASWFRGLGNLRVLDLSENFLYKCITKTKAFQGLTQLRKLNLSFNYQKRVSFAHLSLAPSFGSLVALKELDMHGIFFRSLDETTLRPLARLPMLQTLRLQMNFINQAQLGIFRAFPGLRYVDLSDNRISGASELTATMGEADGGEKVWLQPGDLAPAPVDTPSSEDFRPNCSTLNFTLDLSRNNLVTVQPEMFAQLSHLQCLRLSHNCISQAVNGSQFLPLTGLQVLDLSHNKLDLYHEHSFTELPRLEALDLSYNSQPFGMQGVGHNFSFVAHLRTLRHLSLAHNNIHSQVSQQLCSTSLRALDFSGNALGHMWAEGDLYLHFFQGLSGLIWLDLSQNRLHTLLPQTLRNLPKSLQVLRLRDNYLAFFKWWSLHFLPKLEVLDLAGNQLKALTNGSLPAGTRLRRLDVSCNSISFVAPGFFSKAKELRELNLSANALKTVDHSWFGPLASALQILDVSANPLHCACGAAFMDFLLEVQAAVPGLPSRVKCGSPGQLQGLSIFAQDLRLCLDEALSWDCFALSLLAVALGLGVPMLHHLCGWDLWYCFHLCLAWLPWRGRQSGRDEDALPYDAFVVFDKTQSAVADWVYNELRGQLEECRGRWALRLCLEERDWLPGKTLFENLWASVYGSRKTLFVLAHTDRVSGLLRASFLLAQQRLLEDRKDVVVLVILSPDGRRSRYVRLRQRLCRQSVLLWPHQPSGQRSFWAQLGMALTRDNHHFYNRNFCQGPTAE
Procedure, shortened: as §1

Compound	IC50 (human TLR7) [µM]	IC50 (human TLR8) [µM]	IC50 (human TLR9) [µM]
Cc1nnc2ccc(-c3[nH]c4ccc(C5CCN(Cc6ncn(C)n6)CC5)cc4c3C(C)C)cn12 [Example 22, 6-(3-isopropyl-5-(1-((1-methyl-1H-1,2,4-triazol-3-yl)methyl)piperidin-4-yl)-1H-indol-2-yl)-3-methyl-[1,2,4]triazolo[4,3-a]pyridine]	0.136	0.0176	≥ 50
CC(C)c1c(-c2ccc3nncn3c2)[nH]c2ccc(C3CCN(Cc4ncn(C)n4)CC3)cc12 [Example 23, 6-(3-isopropyl-5-(1-((1-methyl-1H-1,2,4-triazol-3-yl)methyl)piperidin-4-yl)-1H-indol-2-yl)-[1,2,4]triazolo[4,3-a]pyridine]	0.0549	0.375	≥ 50
CNC(=O)CN1CCC(c2ccc3[nH]c(-c4ccc5nncn5c4C)c(C(C)C)c3c2)CC1 [Example 24, 2-(4-(3-isopropyl-2-(5-methyl-[1,2,4]triazolo[4,3-a]pyridin-6-yl)-1H-indol-5-yl)piperidin-1-yl)-N-methylacetamide]	0.0408	0.0319	8.93
Cc1c(-c2[nH]c3ccc(C4CCN(CC(=O)N(C)C)CC4)cc3c2C(C)C)ccc2nncn12 [Example 25, 2-(4-(3-isopropyl-2-(5-methyl-[1,2,4]triazolo[4,3-a]pyridin-6-yl)-1H-indol-5-yl)piperidin-1-yl)-N,N-dimethylacetamide]	0.0495	0.0285	3.32
Cc1c(-c2[nH]c3ccc(C4CCN(Cc5ncn(C)n5)CC4)cc3c2C(C)C)ccc2nncn12 [Example 26, 6-(3-isopropyl-5-(1-((1-methyl-1H-1,2,4-triazol-3-yl)methyl)piperidin-4-yl)-1H-indol-2-yl)-5-methyl-[1,2,4]triazolo[4,3-a]pyridine]	0.117	0.0279	12.4
COCCN1CCC(c2ccc3[nH]c(-c4cc(C)c5nncn5c4)c(C(C)C)c3c2)CC1 [Example 27, 6-(3-isopropyl-5-(1-(2-methoxyethyl)piperidin-4-yl)-1H-indol-2-yl)-8-methyl-[1,2,4]triazolo[4,3-a]pyridine]	0.0009	0.0034	3.5
Cc1cc(-c2[nH]c3ccc(C4CCN(CCO)CC4)cc3c2C(C)C)cn2cnnc12 [Example 28, 2-(4-(3-isopropyl-2-(8-methyl-[1,2,4]triazolo[4,3-a]pyridin-6-yl)-1H-indol-5-yl)piperidin-1-yl) ethan-1-ol]	0.0004	0.0034	0.454
Cc1cc(-c2[nH]c3ccc(C4CCN(CC5(C)COC5)CC4)cc3c2C(C)C)cn2cnnc12 [Example 29, 6-(3-isopropyl-5-(1-((3-methyloxetan-3-yl)methyl)piperidin-4-yl)-1H-indol-2-yl)-8-methyl-[1,2,4]triazolo[4,3-a]pyridine]	0.0007	0.0011	4.33
Cc1cc(-c2[nH]c3ccc(C4CCN(CC5COC5)CC4)cc3c2C(C)C)cn2cnnc12 [Example 30, 6-(3-isopropyl-5-(1-(oxetan-3-ylmethyl)piperidin-4-yl)-1H-indol-2-yl)-8-methyl-[1,2,4]triazolo[4,3-a]pyridine]	0.0003	0.0013	3.11
Cc1cc(-c2[nH]c3ccc(C4CCN(CC#N)CC4)cc3c2C(C)C)cn2c(C)nnc12 [Example 31, 2-(4-(2-(3,8-dimethyl-[1,2,4]triazolo[4,3-a]pyridin-6-yl)-3-isopropyl-1H-indol-5-yl)piperidin-1-yl)acetonitrile]	0.0038	0.0128	0.727
Cc1cc(-c2[nH]c3ccc(C4CCN(CCS(C)(=O)=O)CC4)cc3c2C(C)C)cn2c(C)nnc12 [Example 32, 6-(3-isopropyl-5-(1-(2-(methylsulfonyl)ethyl)piperidin-4-yl)-1H-indol-2-yl)-3,8-dimethyl-[1,2,4]triazolo[4,3-a]pyridine]	0.0111	0.0021	3.67
Cc1cc(-c2[nH]c3ccc(C4CCN(Cc5ncn(C)n5)CC4)cc3c2C(C)C)cn2c(C)nnc12 [Example 33, 6-(3-isopropyl-5-(1-((1-methyl-1H-1,2,4-triazol-3-yl)methyl)piperidin-4-yl)-1H-indol-2-yl)-3,8-dimethyl-[1,2,4]triazolo[4,3-a]pyridine]	0.0296	0.0079	5.16
Cc1cc(-c2[nH]c3ccc(C4CCN(CC(=O)N(C)C)CC4)cc3c2C(C)C)cn2c(C)nnc12 [Example 34, 2-(4-(2-(3,8-dimethyl-[1,2,4]triazolo[4,3-a]pyridin-6-yl)-3-isopropyl-1H-indol-5-yl)piperidin-1-yl)-N,N-dimethylacetamide]	0.0091	0.0046	1.43
Cc1cc(-c2[nH]c3ccc(C4CCN(CCS(C)(=O)=O)CC4)cc3c2C(C)C)cn2cnnc12 [Example 35, 6-(3-isopropyl-5-(1-(2-(methylsulfonyl)ethyl)piperidin-4-yl)-1H-indol-2-yl)-8-methyl-[1,2,4] triazolo[4,3-a]pyridine]	0.0007	0.003	5.84
